Data published in patent US6737383B1, “Herbicidal oxadiazolidines” (priority 1999, dated 2004).

Experiments:
bedstraw = assay: Test B pre/postemergence bedstraw; type: in vivo, Galium aparine
How it was run: (§1)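 Herbicidal effect was estimated by eye on a ten-point control scale after plants spent twelve to sixteen days in a greenhouse following soil or foliar treatment. Foliar sprays targeted plants at one to four leaves; all doses were formulated in a non-phytotoxic solvent with surfactant.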

blackgrass = assay: Test B pre/postemergence blackgrass; type: in vivo, Alopecurus myosuroides
How it was run: as §1

surinam grass = assay: Test B pre/postemergence surinam grass; type: in vivo, Brachiaria decumbens
How it was run: as §1

cocklebur = assay: Test B pre/postemergence cocklebur; type: in vivo, Xanthium strumarium
How it was run: as §1

corn = assay: Test B pre/postemergence corn; type: in vivo, Zea mays
How it was run: as §1

crabgrass = assay: Test B pre/postemergence crabgrass; type: in vivo, Digitaria sanguinalis
How it was run: as §1

giant foxtail = assay: Test B pre/postemergence giant foxtail; type: in vivo, Setaria faberii
How it was run: as §1

morningglory = assay: Test B pre/postemergence morningglory; type: in vivo, Ipomoea hederacea
How it was run: as §1

pigweed = assay: Test B pre/postemergence pigweed; type: in vivo, Amaranthus retroflexus
How it was run: as §1

rape = assay: Test B pre/postemergence rape; type: in vivo, Brassica napus
How it was run: as §1

soybean = assay: Test B pre/postemergence soybean; type: in vivo, Glycine max
How it was run: as §1

sugar beet = assay: Test B pre/postemergence sugar beet; type: in vivo, Beta vulgaris
How it was run: as §1

velvetleaf = assay: Test B pre/postemergence velvetleaf; type: in vivo, Abutilon theophrasti
How it was run: as §1

wheat = assay: Test B pre/postemergence wheat; type: in vivo, Triticum aestivum
How it was run: as §1

wild oat = assay: Test B pre/postemergence wild oat; type: in vivo, Avena fatua
How it was run: as §1

purple nutsedge = assay: Test B pre/postemergence purple nutsedge; type: in vivo, Cyperus rotundus
How it was run: as §1

rice = assay: Test B flood test rice; type: in vivo, Oryza sativa
How it was run: (§2)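 Plants were grown to the 2-leaf stage before treatment with test chemical, then held in a greenhouse for twelve to sixteen days. Injury was visually rated against untreated controls on a 0–10 scale, where 0 is no effect and 10 is complete control.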

smallflower flatsedge = assay: Test B flood test smallflower flatsedge; type: in vivo, Cyperus difformis
How it was run: as §2

duck salad = assay: Test B flood test duck salad; type: in vivo, Heteranthera limosa
How it was run: as §2

bamyardgrass = assay: Test B flood test barnyardgrass; type: in vivo, Echinochloa crus-galli
How it was run: as §2

[1] = Preemergence, Rate 62 g/ha, scale of 0 to 10 where 0 is no effect and 10 is complete control
[2] = Preemergence, Rate 250 g/ha, scale of 0 to 10 where 0 is no effect and 10 is complete control
[3] = Preemergence, Rate 500 g/ha, scale of 0 to 10 where 0 is no effect and 10 is complete control
[4] = Rate 62 g/ha, Postemergence, scale of 0 to 10 where 0 is no effect and 10 is complete control
[5] = Rate 125 g/ha, Postemergence, scale 0 to 10
[6] = Rate 125 g/ha, Preemergence, scale of 0 to 10 where 0 is no effect and 10 is complete control
[7] = Rate 500 g/ha, Postemergence, scale 0 to 10, 0 no effect, 10 complete control
[8] = Rate 62 g/ha, headed Pre-emergence (flood test species), scale 0 to 10 (0 no effect, 10 complete control)
[9] = Rate 125 g/ha, Pre-emergence, flood test species, scale 0 to 10 where 0 is no effect and 10 is complete control
[10] = Rate 250 g/ha, Pre-emergence, flood-test species, scale 0 to 10, 0 is no effect, 10 is complete control
[11] = Rate 500 g/ha, Pre-emergence, flood test species, scale 0 to 10 (0 no effect, 10 complete control)

CCCCCCCCCCCCCCCCCCCn1c(=O)on(C(=O)N(c2ccc(F)cc2)C(C)C)c1=O [Compound 253]
0: Bedstraw plant response rating (bedstraw; [1]) | Bedstraw plant response rating (bedstraw; [2]) | Plant response rating, Bedstraw (bedstraw; [3]) | Bedstraw plant response rating (bedstraw; [4]) | Bedstraw plant response rating (bedstraw; [5]) | Bedstraw plant response rating (bedstraw; [6]) | Plant response rating (0 to 10; 0 is no effect, 10 is complete control), Bedstraw (bedstraw; Rate 250 g/ha, Postemergence) | Bedstraw plant response rating (bedstraw; [7]) | Blackgrass plant response rating (blackgrass; [1]) | Blackgrass plant response rating (blackgrass; [2]) | Plant response rating, Blackgrass (blackgrass; [3]) | Blackgrass plant response rating (blackgrass; [4]) | Blackgrass plant response rating (blackgrass; [5]) | Blackgrass plant response rating (blackgrass; [6]) | Plant response rating (0 to 10; 0 is no effect, 10 is complete control), Blackgrass (blackgrass; Rate 250 g/ha, Postemergence) | Blackgrass plant response rating (blackgrass; [7]) | B. signalgrass plant response rating (surinam grass; [1]) | B. signalgrass plant response rating (surinam grass; [2]) | Plant response rating, B. signalgrass (surinam grass; [3]) | B. signalgrass plant response rating (surinam grass; [4]) | B. signalgrass plant response rating (surinam grass; Rate 125 g/ha, Postemergence, scale 0 (no effect) to 10 (complete control)) | B. signalgrass plant response rating (surinam grass; [6]) | Plant response rating (0 to 10; 0 is no effect, 10 is complete control), B. signalgrass (surinam grass; Rate 250 g/ha, Postemergence) | B. signalgrass plant response rating (surinam grass; [7]) | Cocklebur plant response rating (cocklebur; [1]) | Cocklebur plant response rating (cocklebur; [2]) | Plant response rating, Cocklebur (cocklebur; [3]) | Cocklebur plant response rating (cocklebur; [4]) | Cocklebur plant response rating (cocklebur; [5]) | Cocklebur plant response rating (cocklebur; [6]) | Plant response rating (0 to 10; 0 is no effect, 10 is complete control), Cocklebur (cocklebur; Rate 250 g/ha, Postemergence) | Cocklebur plant response rating (cocklebur; [7]) | Corn plant response rating (corn; [1]) | Corn plant response rating (corn; [2]) | Plant response rating, Corn (corn; [3]) | Corn plant response rating (corn; [4]) | Corn plant response rating (corn; [5]) | Corn plant response rating (corn; [6]) | Plant response rating (0 to 10; 0 is no effect, 10 is complete control), Corn (corn; Rate 250 g/ha, Postemergence) | Corn plant response rating (corn; [7]) | Crabgrass plant response rating (crabgrass; [1]) | Crabgrass plant response rating (crabgrass; [2]) | Plant response rating, Crabgrass (crabgrass; [3]) | Crabgrass plant response rating (crabgrass; [6]) | Plant response rating (0 to 10; 0 is no effect, 10 is complete control), Crabgrass (crabgrass; Rate 250 g/ha, Postemergence) | Crabgrass plant response rating (crabgrass; [7]) | Giant foxtail plant response rating (giant foxtail; [1]) | Giant foxtail plant response rating (giant foxtail; [2]) | Plant response rating, Giant foxtail (giant foxtail; [3]) | Giant foxtail plant response rating (giant foxtail; [6]) | Plant response rating (0 to 10; 0 is no effect, 10 is complete control), Giant foxtail (giant foxtail; Rate 250 g/ha, Postemergence) | Giant foxtail plant response rating (giant foxtail; [7]) | Morningglory plant response rating (morningglory; [1]) | Morningglory plant response rating (morningglory; [2]) | Plant response rating, Morningglory (morningglory; [3]) | Morningglory plant response rating (morningglory; [6]) | Plant response rating (0 to 10; 0 is no effect, 10 is complete control), Morningglory (morningglory; Rate 250 g/ha, Postemergence) | Morningglory plant response rating (morningglory; [7]) | Redroot pigweed plant response rating (pigweed; [1]) | Redroot pigweed plant response rating (pigweed; [2]) | Plant response rating, Redroot pigweed (pigweed; [3]) | Redroot pigweed plant response rating (pigweed; [6]) | Plant response rating (0 to 10; 0 is no effect, 10 is complete control), Redroot pigweed (pigweed; Rate 250 g/ha, Postemergence) | Redroot pigweed plant response rating (pigweed; [7]) | Rape plant response rating (rape; [1]) | Rape plant response rating (rape; [2]) | Plant response rating, Rape (rape; [3]) | Rape plant response rating (rape; [6]) | Plant response rating (0 to 10; 0 is no effect, 10 is complete control), Rape (rape; Rate 250 g/ha, Postemergence) | Rape plant response rating (rape; [7]) | Soybean plant response rating (soybean; [1]) | Soybean plant response rating (soybean; [2]) | Plant response rating, Soybean (soybean; [3]) | Soybean plant response rating (soybean; [6]) | Soybean plant response rating (soybean; [7]) | Sugarbeets plant response rating (sugar beet; [1]) | Sugarbeets plant response rating (sugar beet; [2]) | Plant response rating, Sugarbeets (sugar beet; [3]) | Sugarbeets plant response rating (sugar beet; [6]) | Sugarbeets plant response rating (sugar beet; [7]) | Velvetleaf plant response rating (velvetleaf; [1]) | Velvetleaf plant response rating (velvetleaf; [2]) | Plant response rating, Velvetleaf (velvetleaf; [3]) | Velvetleaf plant response rating (velvetleaf; [6]) | Velvetleaf plant response rating (velvetleaf; [7]) | Wheat plant response rating (wheat; [1]) | Wheat plant response rating (wheat; [2]) | Plant response rating, Wheat (wheat; [3]) | Wheat plant response rating (wheat; [6]) | Wheat plant response rating (wheat; [7]) | Wild oats plant response rating (wild oat; [1]) | Wild oats plant response rating (wild oat; [2]) | Plant response rating, Wild oats (wild oat; [3]) | Wild oats plant response rating (wild oat; [6]) | Wild oats plant response rating (wild oat; [7]) | Plant response rating, Nutsedge (purple nutsedge; [3]) | Plant response rating (0 to 10; 0 is no effect, 10 is complete control), Nutsedge (purple nutsedge; Rate 250 g/ha, Postemergence) | Nutsedge plant response rating (purple nutsedge; [7]) | Rice plant response rating (rice; [8]) | Rice plant response rating (rice; [9]) | Rice plant response rating (rice; [10]) | Rice plant response rating (rice; [11]) | S. Flatsedge plant response rating (smallflower flatsedge; [8]) | S. Flatsedge plant response rating (smallflower flatsedge; [9]) | S. Flatsedge plant response rating (smallflower flatsedge; [10]) | S. Flatsedge plant response rating (smallflower flatsedge; [11]) | Ducksalad plant response rating (duck salad; [8]) | Ducksalad plant response rating (duck salad; [9]) | Ducksalad plant response rating (duck salad; [10]) | Ducksalad plant response rating (duck salad; [11]) | Barnyardgrass plant response rating (bamyardgrass; [8]) | Barnyardgrass plant response rating (bamyardgrass; [9]) | Barnyardgrass plant response rating (bamyardgrass; [10]) | Barnyardgrass plant response rating (bamyardgrass; [11])
